Publication PMC3003687, “α-Galactosylceramide Analogs with Weak Agonist Activity for Human iNKT Cells Define New Candidate Anti-Inflammatory Agents” (PLoS ONE, 2010)

Assays:
[1] = system: human iNKT cell clones; test: Cytokine ELISA of human iNKT cell clones stimulated with glycolipid-pulsed CD1d-transfected HeLa cells; type: cell-based; conditions: for dose inducing the lowest activation state (IL-13 and GM-CSF secretion): CD1d-transfected Hela cells and dendritic cells as APCs; for iNKT cell clone cytokine response / agonist activity: dose range, IFNγ, IL-4, IL-13, clones HDD3, HDD11, HDE3, HDA7
Description: Capture ELISA assays were used for measurement of cytokine responses of human iNKT cells to αGalCer analogs. One day prior to the experiment, CD1d transfected HeLa cells were plated at 25×10^3 cells/well in 100 µL of medium in flat-bottom 96 well plates. Glycolipids were then added in 100 µL of medium to give final concentrations ranging from 0.05 to 10^4 nM. The APCs were incubated for approximately 18 hours with the glycolipids and then irradiated (10,000 Rad) and washed twice with PBS prior to addition of 25×10^3 iNKT cells well in 300 µL. Supernatants were harvested after 24 hours of co-culture and stored frozen at -20°C. After thawing, aliquots of the supernatants were assayed for specific cytokines by ELISA using capture and biotin-labeled detection antibody pairs specific for GM-CSF, IL-2, IL-4, IL-12p70 and IL-13 (all obtained from BD Biosciences), IFNγ (Thermo-Scientific) or IL-18 (MBL). Specific signals were developed using HRP- conjugated streptavidin (BD Biosciences) and Turbo TMB substrate (Thermo-Scientific). Supernatants were tested pure and/or diluted to give values within a quantitative linear standard curve generated with recombinant cytokines. Curves of dose-dependent cytokine responses and graphs were plotted using the Graphpad Prism Software. EC50 values were calculated using the function log (agonist) response with variable slope, and statistical analyses were carried out using the same software. To calculate concentration-dependent cytokine ratios, IL-4/IFNγ and IL-13/IFNγ ratios were calculated using cytokine values from which background levels (i.e. levels in cultures receiving DMSO vehicle alone) were subtracted. Ratios were calculated by dividing IL-4 or IL-13 concentrations in pg/mL by IFNγ concentration in ng/mL.

[2] = system: human iNKT cells and NK cells; test: In vitro transactivation assay (CFSE-labeled iNKT cells co-cultured with PBMC); type: cell-based; conditions: for IL-12 levels in supernatants / IL-13 levels in supernatants / IL-18 levels in supernatants / global IFNγ production in supernatants: 24 h, ELISA
Description: iNKT cells were stained for 5 minutes with 1–20 µM of CFSE (Molecular probes) and 5% FCS in PBS and washed twice. As a positive control, a fraction of CFSE-labeled iNKT cells were preactivated for 30 minutes with 1 µg/mL of PMA and 250 ng/mL of Ionomycin (Sigma-Aldrich) in culture medium and extensively washed. The experiment was initiated by adding CFSE-labeled unstimulated or PMA/Ionomycin-preactivated iNKT cells to freshly prepared PBMC pulsed with vehicle or αGalCer analogs at the indicated concentrations and at an iNKT/PBMC ratio of 1/10 or 1/40. Supernatants and cells were harvested from parallel conditions after the indicated time of co-culture. For intracellular cytokine staining, brefeldin A (Golgiplug, BD Biosciences) was added 4 h before harvesting the cells, which were fixed with 1% paraformaldehyde and permeabilized with 0.1% saponin (Sigma-Aldrich) prior to mAb staining. Experiments with blocking antibodies were performed with 10 µg/mL of preservative-free mAbs, including isotype matched control, anti-IL-2, anti-IL-12, anti-IFNγ and anti-CD40L (all from BD Biosciences) or anti-IL-18 (MBL). For detection of CD40L expression by iNKT cells, co-cultures of iNKT and PBMC were prepared as above, except that monensin (Golgistop, BD Biosciences) and fluorescent CD40L specific mAb (1/10 or 1/20 final dilution) were added at the beginning of the experiment, as previously described.
Figure 6 A novel in vitro “transactivation assay” to assess the ability of human iNKT cells to activate other leukocytes. (A) Format for analysis of transactivation of bystander leukocytes. Flow cytometric analysis was carried out for culture containing iNKT cells co-cultured for 24 hours with fresh human PBMC at a 1/10 ratio. For the intracellular detection of IFNγ, Brefeldin A was added for the last 4 hours. Representative electronic gating is shown for the discrimination of CFSE-labeled iNKT cells, B cells, T cells, and NK cells to measure IFNγ expression (or CD69 expression, not shown). Filled black histograms show staining with vehicle control and are overlaid with open gray histograms for stimulation with 100 nM of KRN7000. (B) Dose-dependent IFNγ and CD40L expression by iNKT cells (top and middle graph, respectively) and IFNγ production by transactivated NK cells (bottom graph), after 24 h of co-culture of CFSE-labeled iNKT cells and PBMCs at a 1/10 ratios and the indicated concentration of either KRN7000 (black filled circles) or the adamantanoyl (AD) analog (open circles). Data are presented for a CD4^+ clone (HDD3), and similar results (not shown) were obtained with a DN clone (HDE3). (C) Effect of specific blockade of various cytokines and CD40L on the activation of iNKT cells and transactivated NK cells. CFSE-labeled iNKT cells and PBMCs were co-cultured at a 1/40 ratio for the indicated time, in the presence of KRN7000 at 25 nM and 10 µg/mL of isotype matched control or specific blocking antibodies as indicated. Average percentages of IFNγ^+ iNKT cells and NK cells, assessed by intracellular staining at 24, 48 and 66 hours, are indicated in the left and right plots, respectively.
Figure 7 Comparison of αGalCer analogs for their ability to induce NK cell transactivation. (A) iNKT cell clones were co-cultured for 24 hours with fresh human PBMC at a 1/10 ratio with 100 nM of the indicated analogs, and Brefeldin A was added for the last 4 hours. The percentages of IFNγ^+ iNKT cells (open bars) and IFNγ^+ NK cells (filled bars) are indicated. Cytokine levels were assessed by ELISA in supernatants from identical conditions in absence of Brefeldin A treatment: (B) IFNγ levels (open bars) and IL-13 levels (filled bars); the detection limit was 82.3 ng/mL for both cytokines. (C) IL-12 levels (open bars) and IL-18 levels (filled bars); the detection limit was 27.4 ng/mL. Results obtained with a CD4^+ clone (HDD3) are presented, and similar data (not shown) were obtained with a DN clone (HDE3).

[3] = CD1d-transfected HeLa APC, 24 h co-culture, ELISA

SMILES	dose inducing the lowest activation state (IL-13 and GM-CSF secretion) [1] [nM]	iNKT cell clone cytokine response / agonist activity [1]	IL-12 levels in supernatants ([2]; 100 nM)	IL-13 levels in supernatants ([2]; 100 nM)	IL-18 levels in supernatants ([2]; 100 nM)	global IFNγ production in supernatants ([2]; 100 nM)	EC50 ([1]; Homo sapiens, iNKT, HDD3 clone, IL-4 levels did not reach a plateau) [µM]	concentration at which IL-13 production was induced [1, 3] [nM]	concentration reaching maximal IL-13 production [1, 3]	higher concentration required for IFNγ to be induced and reach plateau, relative to IL-13 [1, 3]	concentration saturating IL-4 production ([1]; CD1d-transfected HeLa APC, data not shown)	IFNγ production in bystander leukocytes (intracellular staining) ([2]; 100 nM, iNKT/PBMC 1/10)	CD69 induction in bystander leukocytes upon iNKT cell stimulation ([2]; not shown)
CCCCC/C=C\C/C=C\CCCCCCCCCC(=O)N[C@@H](CO[C@H]1O[C@H](CO)[C@H](O)[C@H](O)[C@H]1O)[C@H](O)[C@H](O)CCCCCCCCCCCCCC [C20:2]	< 1	strong agonist activity	detectable IL-12 generation	high IL-13 levels	enhanced IL-18 levels compared to vehicle control	high global production of IFNγ	–	–	–	–	–	–	–
CCCCC/C=C\C/C=C\C/C=C\C/C=C\CCCC(=O)N[C@@H](CO[C@H]1O[C@H](CO)[C@H](O)[C@H](O)[C@H]1O)[C@H](O)[C@H](O)CCCCCCCCCCCCCC [C20:4]	–	substantially lower iNKT cell response	detectable IL-12 generation	high IL-13 levels	enhanced IL-18 levels compared to vehicle control	high global production of IFNγ	> 10	–	–	–	–	–	–
CCCCCCCCCCCCCCCCCCCCCCCCCC(=O)N[C@@H](CO[C@H]1O[C@H](CO)[C@H](O)[C@H](O)[C@H]1O)[C@H](O)[C@H](O)CCCCCCCCCCCCCC [KRN7000, reference compound]	< 1	strong agonist activity	–	–	–	–	–	≤ 0.1	approximately 1 nM	approximately 1 log	very high KRN7000 concentrations in the µM range	detectable at 24 h in NK cells, but not in T cells or B cells	nearly all B cells and NK cells, but not T cells, became CD69^+
